How the values were obtained:
Format in all cases: cell-based
[1] = system: three mold species and one species of Enterobacteriaceae found on cannabis flowers; assay: Paper inhibition disc trials across several microbial species; conditions: paper inhibition discs with terpene dilutions in ethanol; EB species and three mold species
Source text: The method of determining terpene-based biocontrol agents for use on cannabis and hemp include processing steps that include a. Isolate epiphytic microorganisms from cannabis ‘flower wash’ and isolate into pure cultures. b. Grow up individual fungal or bacterial broth cultures with shaking at RT until turbidity is evident; if, possible take OD600 nm reading of turbidity for each culture just prior to plating out serial dilutions onto agar plates to determine ˜CFU/ml. c. Based on CFU data from (b) above, re-inoculate fresh broth cultures for individual cultures monitoring OD600 nm to reach previous data point and make appropriate dilutions to attain complete seeding on agar petri plate. d. While allowing bacterial suspension to be absorbed into agar, prepare terpene-treated Whatman filter paper hole punches by aliquoting 25 μl of either full strength, 1:10 dilution or 1:100 dilution. Dilutions should be made into 1-15% MeOH or 1-2% castile soap. e. […] One terpene per plate at three concentrations with negative control. ii. One microbial culture seeded per plate. f. Allow plates to grow with incubation at 28° C. for overnight and photograph as well as measuring any zones of inhibition. Continue incubation for 2 more days, taking photographs and making measurements after each 24-hr period. g. Repeat steps (c) through (f) for each terpene against all microbial cultures.
These four plates show three mold species and one species of Enterobacteriaceae found on cannabis flowers 1010. One Enterobacteriaceae species sample plate and three mold species sample plates 1020. An Enterobacteriaceae Count Plate referred to herein as EB plate 1022, and mold species sample plates Mold 1 plate 1024, Mold 2 plate 1026, and Mold 3 plate 1028. The indicated colonies were picked and cultured prior to inoculation of agar petri dishes 1030. Paper inhibition discs with terpene dilutions in ethanol were applied immediately after inoculation of the agar plate as described previously 1040
The EB species and three mold species were tested for inhibition with the selected terpenes 1110. The indicated colonies were picked and cultured prior to inoculation of agar petri dishes 1120. Paper inhibition discs with terpene dilutions in ethanol were applied immediately after inoculation of the agar plate as described previously 1130. […] The results of the trials across several microbial species is continued in FIG. 11B.
There was also significant inhibition of bacterial growth by many of the terpenes 1150. Different microbial species were differentially affected by individual terpenes 1160. […]

[2] = system: yeast and mold species from certified reference materials; assay: Paper disc inhibition on agar plates of yeast and mold species from certified reference materials; conditions: paper discs, terpene only, 10% and 1% dilutions in ethanol; ethanol-only center disc
Protocol: Paper discs were added to the plates, and small volumes of terpenes diluted in ethanol were added to the discs 902. The center discs had ethanol only, while ‘1:1’ discs had terpene only 904 and 10% and 1% dilutions of terpene in ethanol were also included 910. […] Many terpenes are likely to have inhibitory effects on microbial growth 940. […] Terpenes microbial growth inhibitor samples 970 include carene, humulene, limonene, ocimene, terpineol, and terpinolene of one embodiment.

[3] = system: mold found on a cannabis flower; assay: Terpene added to known contaminated sample during preparation of the culture plate
Source text: Terpenes can inhibit the growth of mold found on a cannabis flower 840. An effective range is 1-5% with some inhibition at levels as low as 0.1% 850 of one embodiment.

| SMILES | effectiveness among terpenes tested [1] | inhibition of yeast and mold growth [2] | inhibition of mold growth ([3]; terpene added at 0.1% to known contaminated sample) | inhibition of mold growth ([3]; terpene added at 1% to known contaminated sample) |
| --- | --- | --- | --- | --- |
| CC(C)=CCCC(C)=CC=O [Citral, citral] | the most effective of terpenes tested |  |  |  |
| C=CC(C)(O)CCC=C(C)C (stereo not shown) [linalool] | the most effective of terpenes tested |  |  |  |
| C=CCc1ccc(O)c(OC)c1 [eugenol] | the most effective of terpenes tested |  |  |  |
| CC(C)=CCC/C(C)=C/CO [geraniol] | the most effective of terpenes tested |  |  |  |
| CC1=CCC(=C(C)C)CC1 [terpinolene] |  | the most inhibition | significant inhibition of mold growth | significant inhibition of mold growth |

— patent publication US20200277646A1, “METHOD OF DETERMINING TERPENE-BASED BIOCONTROL AGENTS FOR CANNABIS AND HEMP” (priority 2019, published 2020)
